# Test results published in patent publication US9682033B2, “Methods of treating postherpetic neuralgia with a topical formulation of a spiro-oxindole compound” (Teva Pharmaceuticals International GmbH, priority 2015, dated 2017).
# Experiments:
# [1] = system: streptozotocin-induced neuropathic pain model; experiment: Streptozotocin-induced neuropathic pain model, mechanical allodynia (paw withdrawal threshold); format: in vivo, rats; settings: topical, diabetic neuropathic pain model
# Description: Topical 4% Test Pharmaceutical Composition was compared with lidocaine and diclofenac for relief of mechanical allodynia in the streptozotocin-induced neuropathic pain model in rats.
# [2] = Joint penetration and tissue distribution study in domestic pig, multiple-dose topical administration (Biological Example 2); format: in vivo
# Description: This study was conducted to evaluate the joint penetration, systemic plasma exposure and tissue distribution of the spiro-oxindole compound in domestic pigs following topical administration of a pharmaceutical composition utilized in the methods of the invention. Fifteen female pigs were used in this study with three pigs in each group. Beginning on Day 1, a pharmaceutical composition of the invention was topically applied to the left radiocarpal joint (carpus) and tibiotarsal joint (hock) twice daily (bid) for 17 days (34 applications) for Groups 1-4 and once daily (qd) for 17 days (17 applications) for Group 5. Pre-dose blood samples (prior to morning dosing) was collected on Days 2, 7, 10, 14 and 17. A full pharmacokinetic sampling was performed on Day 17 (post am dosing) at the following time points: 1, 2, 4, 8 and 12 hr. On the day of necropsy, Day 18, blood was collected prior to euthanasia, each pig was humanely euthanized and dorsal skin and muscle, liver, kidney, heart, lung, brain, intestine, fat, ovaries, urinary bladder, sciatic nerve, and skin, muscle, synovial membrane, and synovial fluid from all 4 joints (2 treated, left carpus and hock, and 2 untreated, right carpus and hock) was collected.
# Doses were calculated by measuring the joint circumference and joint width (to include ˜2 cm above and below the joint) to calculate the total surface area for each individual dose. Group 1 received a 2% pharmaceutical composition of the invention and the dose volume for Group 1 was calculated using the total surface area and the designated dose volume of 3 μL/cm^2. The total dose volume was then converted from μL to mL to estimate the dose weight in grams, based on the composition density of 1 g/cm^3. Following is an example (not actual measurements) of calculating the dose:
# For Groups 2-5, the dose volume was calculated using the total surface area and the designated dose volume of 3 μL/cm^2 (Groups 2, 3 and 5) or 1 μL/cm^2 (Group 4). […]
# CYP2C19 = experiment: clinical; settings: human, in vivo
# Description: This was a single center, open-label, 1-sequence drug-drug interaction study in 32 healthy adult male and female subjects. The study consisted of a 28-day screening period, a 10-day inpatient treatment period, and a follow-up visit. Subjects meeting the study inclusion/exclusion requirements were admitted to the clinical research unit on day −1 and were confined until day 10.
# Blood samples were collected for the assessment of the pharmacokinetics of midazolam and omeprazole.
# The primary pharmacokinetic endpoints were the geometric mean ratios (90% confidence intervals [CIs]) for Cmax, AUC0-t, and AUC0-inf for midazolam and omeprazole on day 9 versus day 1.
# Blood samples were collected for the assessment of the pharmacokinetics of the major metabolites of midazolam (1-OH-midazolam) and omeprazole (5-OH-omeprazole), and for the spiro-oxindole compound. Further secondary pharmacokinetic variables included Cmax, tmax, AUC0-t, AUC0-inf, CL/F, λz, t1/2, and % AUCext for 1-OH-midazolam and 5-OH-omeprazole, on days 1 and 9, and Cmax, morning predose concentrations (Ctrough), average plasma concentration over the dosing interval (Cave), and area under the plasma concentration-time curve over the dosing interval (AUC0-τ) were presented for the spiro-oxindole compound.
# Descriptive statistics (n, mean, geometric mean, standard deviation [SD], % CV, median, minimum, and maximum) were used to summarize plasma midazolam, omeprazole and their metabolites, and the spiro-oxindole compound concentration for all subjects overall at each scheduled time point. Descriptive statistics (as noted above) were also used to summarize plasma omeprazole, 5-OH-omeprazole, and the spiro-oxindole compound concentration for all subjects overall by CYP2C19 genotype at each scheduled time point. Pharmacokinetic parameters were derived by noncompartmental analysis. Descriptive statistics (as noted above) were used to summarize the calculated pharmacokinetic parameters for midazolam, omeprazole and their metabolites, and the spiro-oxindole compound by treatment for all subjects. Descriptive statistics (as noted above) were also used to summarize the calculated pharmacokinetic parameters for omeprazole, 5-OH-omeprazole, and the spiro-oxindole compound by treatment and CYP2C19 genotype. Plots of geometric mean and individual plasma concentrations and of select pharmacokinetic parameters for midazolam, omeprazole and their metabolites and the spiro-oxindole compound at select sampling times were provided. Additionally, plots of individual select pharmacokinetic parameters by CYP2C19 phenotype for omeprazole at select time points were provided.
# [3] = system: complete Freund's adjuvant (CFA) model of inflammatory pain; experiment: Complete Freund's adjuvant (CFA) model of inflammatory pain; format: in vivo; settings: rat, topical
# human hepatocytes = experiment: In vitro metabolic stability in hepatocytes (human); format: in vitro ADME; settings: ^14C-spiro-oxindole compound
# Description: (§1) A total of 8 metabolites were identified in samples (in vitro and in vivo) from rats, dogs, and humans. All metabolites found in humans were also found in the Good Laboratory Practice (GLP) toxicology species, the rat. Following oral administration of spiro-oxindole compound to humans, spiro-oxindole compound and 3 of its metabolites (M1, M5, and M6) were measurable. A similar metabolic profile was observed following topical administration to humans, albeit at much lower plasma concentrations, except metabolite M1 was not detected following human topical administration.
# [4] = Mouse local lymph node assay; format: in vivo
# CYP3A4 = experiment: In vitro CYP3A4 induction; format: in vitro ADME
# minipig hepatocytes = experiment: In vitro metabolic stability in hepatocytes (minipig); format: in vitro ADME; settings: ^14C-spiro-oxindole compound
# Description: as §1
# [5] = domestic pig, topical administration to a joint
compound,measurement,setting,value
"O=C1N(Cc2ccc(C(F)(F)F)o2)c2ccccc2[C@]12COc1cc3c(cc12)OCO3 [spiro-oxindole compound, (S)-1′-{[5-(trifluoromethyl)furan-2-yl]methyl}spiro[furo[2,3-f][1,3]benzodioxole-7,3′-indol]-2′(1′H)-one]",efficacy compared with 5% lidocaine,[1],superior efficacy to 5% lidocaine
same,concentration in the synovial membrane tissue of the treated joint (in words),[2]; [5],micromolar concentrations
same,plasma concentrations (in words),[2]; [5],nanomolar
same,spiro-oxindole compound concentration in liver tissue,"[2]; pig G2 (#4-6): 4% composition, 3 μL/cm^2 bid topical 17 days, individual animals",0/0
same,"Geometric LS mean ration (%) (test/reference), omeprazole AUC0-inf",CYP2C19; both,105.751%
same,"Geometric LS mean ration (%) (test/reference), omeprazole AUC0-t",CYP2C19; both,101.553%
same,"Geometric LS mean ration (%) (test/reference), omeprazole Cmax",CYP2C19; both,98.939%
same,effect on systemic exposure to 5-OH-omeprazole (in words),CYP2C19; both,no relevant effect on systemic exposure to 5-OH-omeprazole
same,effect on omeprazole pharmacokinetics (in words),CYP2C19,no relevant effect on omeprazole pharmacokinetics
same,minimum effective dose associated with pain relief,[3],2 % (w/w)
same,in vitro metabolic stability in hepatocytes,human hepatocytes,80%
same,skin sensitization,[4],not a skin sensitizer
same,induction of CYP3A4,CYP3A4,may also be a strong inducer of CYP3A4 with an activation potency similar to rifampicin
same,in vitro metabolic stability in hepatocytes,minipig hepatocytes,18%
